Earlier results as cited in patent US20150133409A1, “TOPICAL OPHTHALMIC, OTIC, AND NASAL COMPOSITIONS OF CIPROFLOXACIN” (priority 2013, published 2015).
Where two headings read alike, the source gives them in different places.

Details: aqueous 0.2 to 1 weight percent ciprofloxacin

For `O=C(O)c1cn(C2CC2)c2cc(N3CCNCC3)c(F)cc2c1=O` [ciprofloxacin], the “pH at which crystalline precipitation of ciprofloxacin occurs” value (5° C.) is given as “above 5” and the “pH at which crystalline precipitation of ciprofloxacin occurs” value (room temperature) is given as “above 5.5”.
